We go through 19 molecules from PubChem BioAssay AID220 (DTP/NCI, 2004).

“And” between values parts separate entries of the source, which are not always exact repeats. Identical values can stand only once. Results filed as inconclusive are left out.

For the assay, the system named is CD8F1 mice, subcutaneous mammary adenocarcinoma, T/C%. Description: NCI In Vivo Anticancer Drug Screen. Data for tumor model Mammary Adenocarcinoma CD8F1 (subcutaneous) in CD8F1. Conditions: higher = larger tumour. Summed up:
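Mice carrying transplanted tumors received test compound, and survival or tumor size was recorded. Each value is the treated-group measurement divided by the corresponding measurement in vehicle-dosed controls.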

[1] abbreviates: endpoint: median tumor weight (est.), dose: 6.25 mg/kg/injection, schedule: Q07DX005 (ip), vehicle: Klucel (hydroxypropylcellulose) (HPC).
Where [2] appears, read: endpoint: median tumor weight (est.), dose: 12.5 mg/kg/injection, schedule: Q07DX005 (ip), vehicle: Klucel (hydroxypropylcellulose) (HPC).
Where [3] appears, read: endpoint: median tumor weight (est.), dose: 25.0 mg/kg/injection, schedule: Q07DX005 (ip), vehicle: Klucel (hydroxypropylcellulose) (HPC).
Where [4] appears, read: endpoint: median tumor weight change, dose: 250.0 mg/kg/injection, schedule: Q01DX001 (ip), vehicle: saline with Tween-80.
Where [5] appears, read: endpoint: median tumor weight (est.), dose: 12.5 mg/kg/injection, schedule: Q07DX005 (ip), vehicle: water.
Where [6] appears, read: endpoint: median tumor weight (est.), dose: 25.0 mg/kg/injection, schedule: Q07DX005 (ip), vehicle: water.
[7] abbreviates: endpoint: median tumor weight (est.), dose: 50.0 mg/kg/injection, schedule: Q07DX005 (ip), vehicle: water.
Setting [8] is: endpoint: median tumor weight (est.), dose: 100.0 mg/kg/injection, schedule: Q07DX005 (ip), vehicle: water.
Setting [9] is: endpoint: median tumor weight (est.), dose: 200.0 mg/kg/injection, schedule: Q07DX005 (ip), vehicle: water.
The mark [10] stands for this setting: endpoint: median tumor weight change, dose: 125.0 mg/kg/injection, schedule: Q01DX001 (ip), vehicle: saline with Tween-80.

In the case of `O=C(O)c1ccc(SSc2ccc(C(=O)O)cn2)nc1`, the T/C is, setting by setting: (endpoint: mean tumor weight, dose: 125.0 mg/kg/injection, schedule: Q07DX004 (ip), vehicle: saline) 123 % of control; (endpoint: mean tumor weight, dose: 250.0 mg/kg/injection, schedule: Q07DX004 (ip), vehicle: saline) 102 % of control; (endpoint: mean tumor weight, dose: 500.0 mg/kg/injection, schedule: Q07DX007 (ip), vehicle: saline) 99 % of control.

Turning to `N#CC(C#N)=C/C=C/c1cccc([N+](=O)[O-])c1`, the T/C reads like this: (endpoint: median tumor weight (est.), dose: 3.12 mg/kg/injection, schedule: Q07DX005 (ip), vehicle: Klucel (hydroxypropylcellulose) (HPC)) 122 % of control; under setting [1], 239 % of control; under setting [2], 169 % of control; under setting [3], 152 % of control.

`CCCCCC1c2cc(O)ccc2OC1N1CCOCC1` (centres undefined): under setting [4], the T/C was 204 % of control and 73 % of control.

As to `Nc1nc2c(ncn2C2OC(CO)C(O)C2O)c(=O)[nH]1.Nc1nc2c(ncn2C2OC(CO)C(O)C2O)c(=O)[nH]1.[NH2-].[NH2-].[Pt+2]` (centres undefined), the T/C reads like this: under setting [5], 52 % of control; under setting [6], 61 % of control; under setting [7], 34 % of control; under setting [8], 51 % of control; under setting [9], 40 % of control.

Consider `COc1ccc2ccccc2c1C1NC(=O)c2ccccc2N1` (centres undefined), for which the T/C runs as follows: (endpoint: median tumor weight change, dose: 125.0 mg/kg/injection, schedule: Q01DX001 (ip), vehicle: Klucel (hydroxypropylcellulose) (HPC)) 88 % of control; (endpoint: median tumor weight change, dose: 250.0 mg/kg/injection, schedule: Q01DX001 (ip), vehicle: Klucel (hydroxypropylcellulose) (HPC)) 118 % of control; (endpoint: median tumor weight change, dose: 500.0 mg/kg/injection, schedule: Q01DX001 (ip), vehicle: Klucel (hydroxypropylcellulose) (HPC)) 97 % of control; (endpoint: median tumor weight change, dose: 1000.0 mg/kg/injection, schedule: Q01DX001 (ip), vehicle: Klucel (hydroxypropylcellulose) (HPC)) 60 % of control.

With `Nc1ccc2nc3ccc(N)cc3[n+](-c3ccccc3)c2c1`, the T/C by setting is: under setting [1], 90 % of control; (endpoint: median tumor weight (est.), dose: 6.25 mg/kg/injection, schedule: Q07DX005 (ip), vehicle: suspension in saline) 72 % of control; under setting [2], 35 % of control; (endpoint: median tumor weight (est.), dose: 12.5 mg/kg/injection, schedule: Q07DX005 (ip), vehicle: suspension in saline) 64 % of control; under setting [3], 80 % of control; (endpoint: median tumor weight (est.), dose: 25.0 mg/kg/injection, schedule: Q07DX005 (ip), vehicle: suspension in saline) 95 % of control. For the same molecule, the T/C (endpoint: median tumor weight (est.), dose: 50.0 mg/kg/injection, schedule: Q07DX005 (ip), vehicle: Klucel (hydroxypropylcellulose) (HPC)) was 45 % of control.

`COC1=C(C)C(=O)C2=C(C1=O)C(CO)N1C(C#N)C3CC4C(C1C2N1CCOC41)N3C` (centres undefined): the T/C is 120 % of control (endpoint: median tumor weight change, dose: 0.62 mg/kg/injection, schedule: Q01DX001 (ip), vehicle: saline + alcohol); 98 % of control and 107 % of control and 116 % of control (endpoint: median tumor weight change, dose: 1.25 mg/kg/injection, schedule: Q01DX001 (ip), vehicle: saline + alcohol).

With `NC(C(=O)O)c1ccc(CBr)cc1` (centres undefined), under setting [10], the T/C was 106 % of control.

Regarding `C1CC[N-]CC1.[Cl][Pt+2][Cl].[NH-]C1CC1`, the T/C is, setting by setting: (endpoint: median tumor weight change, dose: 31.0 mg/kg/injection, schedule: Q01DX001 (ip), vehicle: water) 116 % of control; (endpoint: median tumor weight change, dose: 62.0 mg/kg/injection, schedule: Q01DX001 (ip), vehicle: water) 121 % of control; (endpoint: median tumor weight change, dose: 62.5 mg/kg/injection, schedule: Q01DX001 (ip), vehicle: distilled water + Tween-80) 26 % of control; (endpoint: median tumor weight change, dose: 125.0 mg/kg/injection, schedule: Q01DX001 (ip), vehicle: water) 21 % of control.

Turning to `COc1cc2cc(c1Cl)N(C)C(=O)CC(OC(=O)C(C)C)C1(C)OC1C(C)C1CC(O)(NC(=O)O1)C(OC)/C=C/C=C(C)C2` (centres undefined), the T/C reads like this: (endpoint: median tumor weight (est.), dose: 9.3 micrograms/kg/injection, schedule: Q07DX005 (ip), vehicle: saline + alcohol) 79 % of control; (endpoint: median tumor weight (est.), dose: 18.7 micrograms/kg/injection, schedule: Q07DX005 (ip), vehicle: saline + alcohol) 103 % of control; (endpoint: median tumor weight (est.), dose: 75.0 micrograms/kg/injection, schedule: Q07DX005 (ip), vehicle: saline + alcohol) 89 % of control; (endpoint: median tumor weight (est.), dose: 150.0 micrograms/kg/injection, schedule: Q07DX005 (ip), vehicle: saline + alcohol) 45 % of control.

With `O=C(CCCCCCC(=O)ON1C(=O)CCC1=O)ON1C(=O)CCC1=O`, the T/C is, setting by setting: (endpoint: median tumor weight change, dose: 187.5 mg/kg/injection, schedule: Q01DX001 (ip), vehicle: saline with Tween-80) 100 % of control; (endpoint: median tumor weight change, dose: 375.0 mg/kg/injection, schedule: Q01DX001 (ip), vehicle: saline with Tween-80) 102 % of control; (endpoint: median tumor weight change, dose: 750.0 mg/kg/injection, schedule: Q01DX001 (ip), vehicle: saline with Tween-80) 51 % of control.

For the molecule `COc1ccc2c(c1[N+](=O)[O-])CC[C@@H]1[C@@H]2CC[C@]2(C)C(=O)CC[C@@H]12`, the T/C (endpoint: median tumor weight change, dose: 62.5 mg/kg/injection, schedule: Q01DX001 (ip), vehicle: saline with Tween-80) is 90 % of control; the T/C under setting [4] is 84 % of control; the T/C (endpoint: median tumor weight change, dose: 500.0 mg/kg/injection, schedule: Q01DX001 (ip), vehicle: saline with Tween-80) is 100 % of control.

Turning to `CC1(C)OC(=O)N(CO)C1=O`, the T/C runs as follows: (endpoint: median tumor weight (est.), dose: 12.5 mg/kg/injection, schedule: Q07DX005 (ip), vehicle: saline) 52 % of control; (endpoint: median tumor weight (est.), dose: 25.0 mg/kg/injection, schedule: Q07DX005 (ip), vehicle: saline) 73 % of control; (endpoint: median tumor weight (est.), dose: 50.0 mg/kg/injection, schedule: Q07DX005 (ip), vehicle: saline) 9 % of control; (endpoint: median tumor weight (est.), dose: 100.0 mg/kg/injection, schedule: Q07DX005 (ip), vehicle: saline) 110 % of control; (endpoint: median tumor weight (est.), dose: 200.0 mg/kg/injection, schedule: Q07DX005 (ip), vehicle: saline) 104 % of control.

As to `Cc1c[nH]c(=O)[nH]c1=O`, the T/C is 214 % of control and 74 % of control (endpoint: median tumor weight (est.), dose: 64.0 mg/kg/injection, schedule: Q07DX005 (ip), vehicle: Klucel (hydroxypropylcellulose) (HPC)); 112 % of control and 118 % of control (endpoint: median tumor weight (est.), dose: 128.0 mg/kg/injection, schedule: Q07DX005 (ip), vehicle: Klucel (hydroxypropylcellulose) (HPC)).

As to `CC1(C)COCN1COC1CCCCC1`, the T/C under setting [10] was 79 % of control.

On to `C=CC(C)(C)n1cc(C2=C(O)C(=O)C(c3cn(C(C)(C)C=C)c4ccccc34)=C(O)C2=O)c2ccccc21`, for which the T/C is 122 % of control (endpoint: median tumor weight (est.), dose: 2.5 mg/kg/injection, schedule: Q07DX005 (ip), vehicle: Klucel (hydroxypropylcellulose) (HPC)); 74 % of control (endpoint: median tumor weight (est.), dose: 5.0 mg/kg/injection, schedule: Q07DX005 (ip), vehicle: Klucel (hydroxypropylcellulose) (HPC)); 91 % of control (endpoint: median tumor weight (est.), dose: 10.0 mg/kg/injection, schedule: Q07DX005 (ip), vehicle: Klucel (hydroxypropylcellulose) (HPC)); 157 % of control (endpoint: median tumor weight (est.), dose: 20.0 mg/kg/injection, schedule: Q07DX005 (ip), vehicle: Klucel (hydroxypropylcellulose) (HPC)); 168 % of control (endpoint: median tumor weight (est.), dose: 40.0 mg/kg/injection, schedule: Q07DX005 (ip), vehicle: Klucel (hydroxypropylcellulose) (HPC)); 64 % of control (endpoint: median tumor weight change, dose: 1.25 mg/kg/injection, schedule: Q01DX001 (ip), vehicle: DMSO). For the same molecule, the T/C was 77 % of control (endpoint: median tumor weight change, dose: 2.5 mg/kg/injection, schedule: Q01DX001 (ip), vehicle: DMSO); 86 % of control (endpoint: median tumor weight change, dose: 5.0 mg/kg/injection, schedule: Q01DX001 (ip), vehicle: DMSO); 110 % of control (endpoint: median tumor weight change, dose: 10.0 mg/kg/injection, schedule: Q01DX001 (ip), vehicle: DMSO).

Regarding `O=C(O)C1CC(c2ccccc2)=NN1c1ccccc1` (centres undefined), the T/C is, setting by setting: under setting [5], 101 % of control; under setting [6], 83 % of control; under setting [7], 83 % of control; under setting [8], 78 % of control; under setting [9], 70 % of control.

On to `CN(C)[C@@H]1C(=O)C(C(N)=O)=C(O)[C@@]2(O)C(=O)C3=C(O)c4c(O)ccc(Cl)c4[C@@](C)(O)[C@H]3C[C@@H]12`, for which the T/C runs as follows: (endpoint: median tumor weight change, dose: 31.25 mg/kg/injection, schedule: Q01DX001 (ip), vehicle: suspension in saline) 86 % of control; (endpoint: median tumor weight change, dose: 62.5 mg/kg/injection, schedule: Q01DX001 (ip), vehicle: suspension in saline) 104 % of control; (endpoint: median tumor weight change, dose: 125.0 mg/kg/injection, schedule: Q01DX001 (ip), vehicle: suspension in saline) 84 % of control; (endpoint: median tumor weight change, dose: 250.0 mg/kg/injection, schedule: Q01DX001 (ip), vehicle: suspension in saline) 83 % of control.

For `CC[n+]1c(-c2ccccc2)c2cc(N)ccc2c2ccc(N)cc21`, the T/C by setting is: (endpoint: median tumor weight (est.), dose: 10.0 mg/kg/injection, schedule: Q07DX005 (ip), vehicle: water) 85 % of control; (endpoint: median tumor weight (est.), dose: 20.0 mg/kg/injection, schedule: Q07DX005 (ip), vehicle: water) 105 % of control.
